# From PubChem BioAssay (NCI)
# Where “and” joins values, the source holds several entries; their conditions need not be identical. Identical values can stand only once.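 1) Cells in 96-well plates. 2) Compound, 48 h, 5 concentrations. 3) Linear interpolation between surrounding doses. 4) Unreached endpoint = highest concentration. Here, GI50 denotes the concentration required for 50% inhibition of growth. The concentration for full growth arrest is given as TGI.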
# What was measured:
# Test in all cases: NCI-60 cell line screen, 48 h
# COLO 205 colon = tested on: COLO 205 colon
# BT-549 breast = tested on: BT-549 breast
# CAKI-1 renal = tested on: CAKI-1 renal
# OVCAR-4 ovarian = tested on: OVCAR-4 ovarian
# SK-MEL-2 melanoma = tested on: SK-MEL-2 melanoma
# SF-539 CNS = tested on: SF-539 CNS
# SN12C renal = tested on: SN12C renal
# MCF7 breast = tested on: MCF7 breast
SMILES,GI50 (COLO 205 colon) [µM],TGI (COLO 205 colon) [µM],GI50 (BT-549 breast),TGI (BT-549 breast),GI50 (CAKI-1 renal),TGI (CAKI-1 renal) [µM],GI50 (OVCAR-4 ovarian),TGI (OVCAR-4 ovarian) [µM],GI50 (SK-MEL-2 melanoma),TGI (SK-MEL-2 melanoma) [µM],GI50 (SF-539 CNS),TGI (SF-539 CNS) [µM],GI50 (SN12C renal),TGI (SN12C renal) [µM],GI50 (MCF7 breast),TGI (MCF7 breast) [µM]
CCCCCCCCCCCCCCCC1=NCCN1,1.86,3.66,6.39 µM,29.7 µM,1.67 µM,3.58,2.38 µM,6.89,2.36 µM,4.87,1.89 µM,3.6,2.07 µM,4.29,,
C=C1C(=O)O[C@H]2[C@H]1CC/C(COC(=O)NCc1c[nH]c3ccccc13)=C\CC[C@@]1(C)O[C@@H]21,1.81,3.58,1.98 µM,6.3 µM,,,4.5 µM,18.6,11.1 µM,24.5,2.82 µM,10.4,1.77 µM,5.47,1.5 µM,4.39
Cc1ccc(Nc2nccc(N(C)c3ccc4c(C)n(C)nc4c3)n2)cc1S(N)(=O)=O,,,1.7 µM and 1.46 µM and 5.02 µM,7.66 µM and > 10 µM and 36.6 µM,1.43 µM and 4.39 µM,> 100,3.43 µM and 0.681 µM and 4.42 µM,> 100,4.67 µM and 1.46 µM and 4.62 µM,,0.589 µM and 1.5 µM,,3.77 µM and 2.65 µM and 6.38 µM,> 100,4.06 µM and 3.1 µM and 6.69 µM,> 100
COc1cc2c3cc1Oc1c(OC)c(OC)cc4c1C(=NCC4)Cc1ccc(cc1)Oc1cc(ccc1O)C[C@H]3N(C)CC2,,26.3,,24.9 µM,,49.1,,40.7,,31.1,,27.9,,75.2,,70
CN(C)CCCN(CCC1CCCCC1)CCC1CCCCC1,1.48,3.36,7.74 µM,22.2 µM,2.65 µM,8.06,7.41 µM,27.7,1.93 µM,3.73,1.68 µM,3.16,9.79 µM,22.9,1.32 µM,2.62
Cc1ccc2oc(=O)cc(/C(=C3/C=CC=N3)c3ccc[nH]3)c2c1,1.49,3.49,0.346 µM,1.58 µM,0.53 µM,10.6,1.58 µM,9.56,0.74 µM,2.89,0.226 µM,0.67,0.672 µM,3.36,0.348 µM,4.23
O=C1C(=C(C(F)(F)Cl)C(F)(F)Cl)C2CCC1C2 (stereo not given),,3.25,,4 µM,,,,8.31,,4.21,,> 6.2,,3.61,,> 6.52
CC1CCN(Cc2ccc(NC(=O)c3cc4ccc5cccnc5c4[nH]3)cc2)CC1,,,10.8 µM,24.3 µM,6.58 µM,31,16.5 µM,> 100,2.45 µM,6.2,1.94 µM,4.01,7.9 µM,29.4,2.48 µM,14.7
CCCCN1CCCC[C@@H]1C(=O)N[C@H](C(=O)N(C)[C@H](C[C@@H](OC(C)=O)c1nc(C(=O)NC2CCC(C(=O)OC)CC2)cs1)C(C)C)C(C)C (stereo not given in full),1.26,11.5,1.4 µM,> 25 µM,,,3.95 µM,> 25,5.28 µM,> 25,1.49 µM,11.8,2.15 µM,> 25,0.806 µM,> 25
COc1cc(Oc2c(C)c(Cl)c(OC)c(Cl)c2OC)c2c(c1Cl)COC2=O,,> 100,,> 100 µM,,> 100,,> 100,,,,> 100,,59.7,,86.2
COc1ccc2c(c1)c(-c1nc(-c3c[nH]c4ncccc34)cs1)cn2CCCN1CCCCC1,1.8,3.52,3.28 µM,12.7 µM,,,1.83 µM,4.35,1.85 µM,3.72,1.63 µM,3.07,1.75 µM,3.36,1.43 µM,2.9
Oc1ccc(Nc2ccc3ccccc3c2)cc1,17.5,35.4,,,1.52 µM,5.93,8.64 µM,> 100,15.3 µM,46,3.38 µM,18.6,10 µM,> 100,15.8 µM,> 100
COc1ccc(/C=C2\CN(C(=O)C(Cl)Cl)C/C(=C\c3ccc(OC)cc3)C2=O)cc1,,,2.19 µM,8.13 µM,,,2.32 µM,> 100,,,,,,,0.296 µM,1.51
O=c1c2ccc(S(=O)(=O)c3ccc4c(=O)n5c6ccccc6nc5c5cccc3c45)c3cccc(c32)c2nc3ccccc3n12,,> 100,,50.5 µM,,> 100,,,,65.6,,> 100,,> 100,,> 100
CCCc1n(Cc2ccc3ccccc3c2)cc[n+]1Cc1ccc2ccccc2c1,0.458,1.72,0.772 µM,2.16 µM,,,0.398 µM,1.61,,,1.1 µM,2.85,1.07 µM,2.53,1.11 µM,2.77
COc1cc(C2CC(c3cccc(Nc4ccnc5cc(Cl)ccc45)c3)=NN2c2ccc(Cl)cc2)cc(OC)c1OC (stereo not given),3.13,24.5,4.63 µM,78.6 µM,0.693 µM,> 100,,,4.65 µM,35.3,1.71 µM,4.87,7.24 µM,> 100,2.31 µM,> 100
COC1C(O)CC(OC2CC(OC3CC(O[C@@H]4C(=O)c5c(cc6cc(OC7CC(OC8CC(O)C(O)C(C)O8)C(O)C(C)O7)c(C)c(O)c6c5O)CC4[C@H](OC)C(=O)O)OC(C)C3O)OC(C)C2O)OC1C (stereo not given in full),1.09,6.9,1.8 µM,31.8 µM,2.6 µM,> 33.3,4.9 µM,> 33.3,1.47 µM,10.6,,,1.72 µM,> 33.3,0.928 µM,> 33.3
CCN1CCC(Nc2ccnc3cc(Cl)ccc23)CC1,12.5,27.1,,,21.5 µM,> 100,55.7 µM,> 100,,,15.8 µM,36,91.9 µM,> 100,28.2 µM,> 100
COc1cccc(/C=C/C(=O)c2ccc(SC)cc2)c1OC,22.6,45,20.8 µM,40.5 µM,18.4 µM,35.9,,,23.3 µM,40.7,20 µM,39.6,14.7 µM,29.2,11 µM,35.8
O=c1[nH]c2ccccc2c2nc3ccccc3n12,,> 100,,> 100 µM,,93.7,,14,,,,69.1,,> 100,,> 100
Oc1ccc(O)c(-c2cn3c(n2)SCC3)c1,17,37.8,11.8 µM,25.7 µM,2.47 µM,5.57,,,78.8 µM,> 100,,,13.9 µM,29.2,26.8 µM,> 100
Cc1c(O)c(N=Nc2nc3ccccc3s2)c2ccccc2c1O,21.4,> 50,15.5 µM,> 50 µM,21.1 µM,> 50,,,17.3 µM,43.2,18.3 µM,> 50,16.7 µM,> 50,> 50 µM,> 50
CSc1c(C2=C(c3cn(C)c4ccccc34)C(=O)NC2=O)c2ccccc2n1C,0.675,> 25,0.747 µM,11.5 µM,0.741 µM,> 20.4,1.2 µM,> 22.5,0.689 µM,5.37,,,1.49 µM,> 25,0.805 µM,> 25
NC(=NCc1ccccc1)C(N=Nc1ccccc1)C(=O)NCc1ccccc1 (stereo not given),14.8,37.2,,,3.44 µM,15.2,18.5 µM,45.1,,,16.6 µM,37.1,22.6 µM,87,12 µM,32
O=C1C(Cl)=C(Nc2ccc(Nc3ccccc3)c(NC3=C(Cl)C(=O)c4ccccc4C3=O)c2)C(=O)c2ccccc21,,,,,5.36 µM,29,,,,,3.43 µM,24.2,2.97 µM,13.7,5.31 µM,44
Cc1nc2c(c(N3CCCc4ccccc43)n1)CCC2,< 0.01,0.0111,< 0.01 µM,19.6 µM,< 0.01 µM,> 100,0.0406 µM,> 100,0.016 µM,> 100,,,0.0161 µM,> 100,0.0228 µM,> 100
